In brackets after ≈: the same amount, converted by molar mass.

Data on 17 molecules can be found in ChEMBL document CHEMBL5518221, “Discovery and Optimization of Selective Brain-Penetrant EBP Inhibitors that Enhance Oligodendrocyte Formation” (J Med Chem, 2024).

The target in series [1] is T1, 3-beta-hydroxysteroid-Delta(8),Delta(7)-isomerase (Mus musculus, UniProt P70245).
T1 sequence (P70245 whole entry): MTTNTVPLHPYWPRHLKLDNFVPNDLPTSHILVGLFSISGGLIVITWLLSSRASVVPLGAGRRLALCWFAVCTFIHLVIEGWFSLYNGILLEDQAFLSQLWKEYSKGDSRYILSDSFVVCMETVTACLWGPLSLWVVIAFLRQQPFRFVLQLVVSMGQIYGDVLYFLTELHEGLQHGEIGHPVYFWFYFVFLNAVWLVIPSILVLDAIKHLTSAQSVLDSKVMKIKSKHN
Put plainly: Inhibition of EBP in mouse Oligodendrocyte precursor cell assessed as zymostenol accumulation by GCMS analysis.

Series [2] in a line: Dissociation constant, pKa of compound.
Series [3] addresses Voltage-gated inwardly rectifying potassium channel KCNH2 (Homo sapiens, UniProt Q12809). The series is described as follows: Inhibition of human ERG expressed in CHO cells by whole cell patch clamp recording. On the technique in general: In patch-clamp work, channel activity is measured electrically.
The nature of another series: in vitro. Particulars: CD-1, mouse, pooled liver microsomes. On the technique in general: Microsomes from liver hold many membrane-bound enzymes, among them those of drug oxidation.
Series [4] is described as follows: Clearance in female C57BL/6 mouse at 1 mg/kg, iv measured after 0.083 hrs by LC-MS/MS analysis. Particulars: in vivo.
The nature of series [5]: Volume of distribution at steady state in female C57BL/6 mouse at 1 mg/kg, iv measured after 0.083 hrs by LC-MS/MS analysis. Particulars: in vivo.
A short description of series [6]: Half-life in female C57BL/6 mouse at 1 mg/kg, iv measured after 0.083 hrs by LC-MS/MS analysis. Particulars: in vivo.
A short description of series [7]: Unbound brain-to-plasma concentration ratio in female C57BL/6 mouse at 1 mg/kg, iv measured after 8 hrs by LC-MS/MS analysis.
Series [8] in a line: Clearance in male Sprague-Dawley rat at 1 mg/kg, iv measured after 8 hrs by LC-MS/MS analysis. Particulars: in vivo.
Series [9] in a line: Volume of distribution at steady state in male Sprague-Dawley rat at 1 mg/kg, iv measured after 8 hrs by LC-MS/MS analysis. Particulars: in vivo.
Series [10] can be described thus: Half-life in male Sprague-Dawley rat at 1 mg/kg, iv measured after 8 hrs by LC-MS/MS analysis. Particulars: in vivo.
A short description of series [11]: Unbound brain-to-plasma concentration ratio in male Sprague-Dawley rat at 1 mg/kg, iv measured after 8 hrs by LC-MS/MS analysis.
Series [12] addresses 3-beta-hydroxysteroid-Delta(8),Delta(7)-isomerase (Homo sapiens, UniProt Q15125). Put plainly: Inhibition of EBP in human Mesenchymal stem cells assessed as zymostenol accumulation by GCMS analysis.
The nature of series [13]: Half-life in female C57BL/6 mouse at 10 mg/kg, po measured after 24 hrs by LC-MS/MS analysis. Particulars: in vivo.
Series [14] is described as follows: Unbound brain-to-plasma concentration ratio in female C57BL/6 mouse at 10 mg/kg, po measured after 8 hrs by LC-MS/MS analysis.
Series [15] in a line: Unbound brain-to-plasma concentration ratio in male Sprague-Dawley rat at 5 mg/kg, po measured after 8 hrs by LC-MS/MS analysis.
A short description of series [16]: Protein binding in human plasma at 5 uM incubated for 6 hrs by equilibrium dialysis based HPLC analysis.
Series [17] in a line: Protein binding in Sprague-Dawley rat plasma at 5 uM incubated for 6 hrs by equilibrium dialysis based HPLC analysis. (In equilibrium dialysis only unbound substance equilibrates across the membrane.)
Series [18] in a line: Protein binding in CD-1 mouse plasma at 5 uM incubated for 6 hrs by equilibrium dialysis based HPLC analysis.
Series [19] can be described thus: Kinetic solubility of compound in PBS at pH 7.4.
A short description of series [20]: in vivo. Particulars: female, C57BL/6, mouse, po, 10 mg/kg.
Series [21] can be described thus: in vivo. Particulars: male, Sprague-Dawley, rat, po, 5 mg/kg.
A further series deals with MDR1. The series is described as follows: in vitro. Particulars: dog, MDCK-MDR1.
In a further series the test system is BCRP. Put plainly: in vitro. Particulars: dog.
The nature of series [22]: Half-life in male Sprague-Dawley rat at 5 mg/kg, po measured after 8 hrs by LC-MS/MS analysis. Particulars: in vivo.
A short description of series [23]: Unbound brain-to-plasma concentration ratio in female C57BL/6 mouse at 0.2 mg/kg administered daily for 7 days and measured 8 hrs post last dose.
Series [24] in a line: in vivo. Particulars: female, C57BL/6, mouse, brain/plasma, 2 mg/kg.
Description: Unbound brain-to-plasma concentration ratio in female C57BL/6 mouse at 2 mg/kg administered daily for 7 days and measured 8 hrs post last dose

Voltage-gated inwardly rectifying potassium channel KCNH2, sequence (Q12809 whole entry): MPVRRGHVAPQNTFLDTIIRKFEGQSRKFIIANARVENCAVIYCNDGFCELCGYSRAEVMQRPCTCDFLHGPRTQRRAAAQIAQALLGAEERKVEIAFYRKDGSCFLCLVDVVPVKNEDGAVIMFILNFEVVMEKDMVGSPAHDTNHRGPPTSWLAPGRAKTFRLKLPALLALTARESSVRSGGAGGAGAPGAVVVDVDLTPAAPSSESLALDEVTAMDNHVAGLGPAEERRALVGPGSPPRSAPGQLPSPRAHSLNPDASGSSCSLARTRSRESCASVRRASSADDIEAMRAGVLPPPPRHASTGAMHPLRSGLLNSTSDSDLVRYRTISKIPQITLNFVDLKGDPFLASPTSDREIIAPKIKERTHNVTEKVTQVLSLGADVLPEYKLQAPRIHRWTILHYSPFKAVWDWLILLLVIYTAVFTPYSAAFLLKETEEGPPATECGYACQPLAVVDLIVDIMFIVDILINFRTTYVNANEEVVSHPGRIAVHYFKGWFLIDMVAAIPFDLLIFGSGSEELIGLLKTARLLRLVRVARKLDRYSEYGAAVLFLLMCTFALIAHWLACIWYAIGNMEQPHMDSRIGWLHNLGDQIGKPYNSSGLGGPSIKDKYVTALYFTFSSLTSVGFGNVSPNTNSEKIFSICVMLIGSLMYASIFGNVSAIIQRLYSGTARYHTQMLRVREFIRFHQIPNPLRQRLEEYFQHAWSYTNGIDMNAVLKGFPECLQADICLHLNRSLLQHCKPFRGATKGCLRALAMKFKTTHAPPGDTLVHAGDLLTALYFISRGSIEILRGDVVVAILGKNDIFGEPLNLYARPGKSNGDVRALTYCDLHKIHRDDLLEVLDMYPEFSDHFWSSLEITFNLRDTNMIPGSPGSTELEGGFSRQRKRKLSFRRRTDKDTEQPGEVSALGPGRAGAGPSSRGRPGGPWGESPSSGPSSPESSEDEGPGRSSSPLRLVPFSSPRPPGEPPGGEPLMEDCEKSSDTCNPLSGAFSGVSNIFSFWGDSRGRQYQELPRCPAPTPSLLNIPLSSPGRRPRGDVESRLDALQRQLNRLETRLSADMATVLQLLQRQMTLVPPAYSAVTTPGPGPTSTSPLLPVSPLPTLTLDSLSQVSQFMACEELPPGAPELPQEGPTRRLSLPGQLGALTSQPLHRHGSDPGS
3-beta-hydroxysteroid-Delta(8),Delta(7)-isomerase (Homo sapiens, UniProt Q15125), sequence (Q15125 whole entry): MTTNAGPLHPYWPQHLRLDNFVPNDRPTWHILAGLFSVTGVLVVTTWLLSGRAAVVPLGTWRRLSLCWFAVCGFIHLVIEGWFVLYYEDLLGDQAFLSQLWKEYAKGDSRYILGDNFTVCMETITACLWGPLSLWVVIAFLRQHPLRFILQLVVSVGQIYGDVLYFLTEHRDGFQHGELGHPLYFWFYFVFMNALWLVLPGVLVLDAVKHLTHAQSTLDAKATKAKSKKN

As a reminder, the EC50 is the concentration that produces a half-maximal response. As usually defined, the pKa is the negative logarithm of the acid dissociation constant. Broadly, the IC50 is the point on the concentration scale where inhibition reaches its midpoint. Read a high IC50 as weaker potency. Turning to `CCN1C(=O)N(c2ccc(C(F)(F)F)cc2)C(=O)C12CCN(C1CCCOCC1)CC2` (stereo not given), the EC50 in series [1] came out at 95 nM. The pKa in series [2] was 8.1. This molecule had an IC50 in series [3] of 850 nM.
On to `CCN1C(=O)N(c2ccc(C(F)(F)F)cc2)C(=O)C12CCN(CC1(F)CCOCC1)CC2`, for which the EC50 in series [1] was found to be 68 nM. The molecule further yielded a pKa in series [2] of 5.7. This molecule displayed a concentration for half-maximal inhibition (IC50) in series [3] of 65000 nM.
For `CN1C(=O)N(c2ccc(C(F)(F)F)cc2)C(=O)C12CCN(CC1CCOCC1)CC2`, in [1], the concentration giving a half-maximal response (EC50) worked out at 20 nM. Further, in “in vitro”, the CLhep predicted at 1 h, 1 µM was less than 14 mL/min/kg.
For the molecule `O=C1NC2(CCN(CC3CCOCC3)CC2)C(=O)N1c1ccc(C(F)(F)F)cc1`, in series [1], the EC50 worked out at 1000 nM. In addition, the CLhep predicted at 1 h, 1 µM in the series “in vitro” is less than 14 mL/min/kg.
As a reminder, the clearance is the volume of plasma or blood freed of the substance per unit of time. A word on the Vd: it is the apparent volume that relates the amount in the body to the concentration in plasma or blood. Read a high Vd as wide distribution into tissue. As usually defined, the half-life is the time in which the quantity being followed falls by half. As to `CCN1C(=O)N(c2ccc(C(F)(F)F)cc2)C(=O)C12CCN(CC1CCOCC1)CC2`, in [4], the clearance at […] amounted to 4 mL/min/kg. In series [5], the Vd at […] was found to be 7.4 L/kg. Also, the half-life at […] in [6] was 62 h. The Kp uu at 8 h in series [7] was determined as 0.95; in [11] it was 1.59. The clearance at 8 h in [8] came to 6.3 mL/min/kg. In series [9], this molecule had a Vd at 8 h of 8.3 L/kg. The same molecule showed a half-life at 8 h in series [10] of 16 h. In addition, the EC50 in series [1] amounted to 6 nM. Moreover, in [2], the pKa came out at 7.9. The molecule further came in with an IC50 in series [3] of 3000 nM. Also, in “in vitro”, the CLhep predicted at 1 h, 1 µM was 17 mL/min/kg.
Regarding `CCN1C(=O)N(c2ccc(C)cc2)C(=O)C12CCN(CC1CCOCC1)CC2`, the half-life at […] in [6] was 1.8 h. The EC50 in series [1] was determined as 18 nM. Besides, the CLhep predicted at 1 h, 1 µM in “in vitro” is less than 14 mL/min/kg.
In the case of `CCN1C(=O)N(c2ccc(C(F)(F)F)cc2)C(=O)C12CCN(CC1CCS(=O)(=O)CC1)CC2`, the EC50 in [1] is 43 nM. This molecule displayed a pKa in series [2] of 8.1. The same molecule registered an IC50 in [3] of 73000 nM.
The molecule `CCN1C(=O)N(c2ccc(Cl)cc2)C(=O)C12CCN(CC1CCOCC1)CC2` had a half-life at […] in series [6] of 5.7 h. Also, the CLhep predicted at 1 h, 1 µM in the series “in vitro” was 25 mL/min/kg.
The molecule `CCN1C(=O)N(c2cccc(C3CC3)c2)C(=O)C12CCN(CC1CCOCC1)CC2` showed a half-life at […] in series [6] of 1.2 h. Moreover, the EC50 in series [1] was found to be 9 nM. Besides, the CLhep predicted at 1 h, 1 µM in the series “in vitro” is 47 mL/min/kg.
Regarding `CCN1C(=O)N(c2cc(Cl)cc(C#N)c2)C(=O)C12CCN(CC1CCOCC1)CC2`, the half-life at […] in series [6] is 0.8 h. Besides, in [1], the EC50 was 16 nM. The CLhep predicted at 1 h, 1 µM in “in vitro” was 35 mL/min/kg.
On to `CC(C)N1C(=O)N(c2ccc(C(F)(F)F)cc2)C(=O)C12CCN(CC1CCOCC1)CC2`, for which the figures for the EC50 in series [1] and in series [12] were 315 nM and 669 nM, respectively. For the same molecule, the CLhep predicted at 1 h, 1 µM in the series “in vitro” was less than 14 mL/min/kg.
Taken in the same sequence, the figures for `O=C1N(c2ccc(C(F)(F)F)cc2)CCC12CCN(CC1CCOCC1)CC2` were 36 nM, 147 nM and 18 mL/min/kg.
Regarding `CCN1C(=O)N(c2ccc(C(F)(F)F)cc2)C(=O)C12CCN(C1CCOCC1)CC2`, in [1], the EC50 was found to be 364 nM. This molecule also had a pKa in [2] of 8.2. Moreover, in [3], the IC50 worked out at 4400 nM.
Regarding `CCN1C(=O)N(c2ccc(C(F)(F)F)cc2)C(=O)C12CCN(C(C)C1CCOCC1)CC2` (stereo not given), in series [1], the EC50 was 41 nM. In addition, the pKa in series [2] worked out at 8.2. In addition, inhibition in series [3] was half-maximal at 2900 nM (IC50).
Consider `O=C1N(c2ccc(C(F)(F)F)cc2)C(=O)C2(CCN(CC3CCOCC3)CC2)N1C1CC1`, for which, in “in vitro”, the CLhep predicted at 1 h, 1 µM is less than 14 mL/min/kg.
In general, fraction unbound refers to free concentration divided by total concentration. Low readings indicate little free substance, high ones much free substance. By solubility (kinetic) is commonly meant solubility judged after dilution from a stock solution rather than from solid. One may read the bioavailability as the share of a dose that reaches the circulation, judged against a reference dose that is usually intravenous. High values mean good availability, low ones poor availability. The term Papp A→B denotes the apparent permeability from the apical to the basolateral side of a cell layer. Low values mean poor permeation, high ones ready permeation. In [4], `CCN1C(=O)N([C@H]2CC[C@H](C(F)(F)F)CC2)C(=O)C12CCN(CC1CCOCC1)CC2` returned a clearance at […] of 9.9 mL/min/kg. This molecule also returned a Vd at […] in series [5] of 5.1 L/kg. Besides, the half-life at […] in series [6] is 5.7 h. Also, the Kp uu at 8 h in series [7] amounted to 0.56; in [14], 0.62; in series [11] it was 0.6; in [15], 0.58. Besides, the half-life at 24 h in [13] was 5.3 h. In series [8], this molecule gave a clearance at 8 h of 9.2 mL/min/kg. Further, the Vd at 8 h in series [9] was 8.3 L/kg. This molecule gave a half-life at 8 h in [10] of 12 h. For the same molecule, half-maximal inhibition in series [3] (IC50) required 8000 nM. Moreover, the fraction unbound at 6 h, 5 µM was 0.296 in series [16], 0.278 in series [17] and 0.376 in series [18]. For the same molecule, the kinetic solubility in series [19] was found to be 29 µM (≈ 12.9 µg/mL). Moreover, in the series “in vivo [20]”, the bioavailability at 24 h worked out at 47%. In addition, the bioavailability at 8 h in the series “in vivo [21]” worked out at 13%. For the same molecule, the CLhep predicted at 1 h, 1 µM in the series “in vitro” is less than 14 mL/min/kg. The values for the Papp A→B in the series with MDR1 and in the series on BCRP were 14 ×10⁻⁶ cm/s and 20 ×10⁻⁶ cm/s, respectively.
In series [4], `CCN1C(=O)N(c2ccc(C3CC3)cc2)C(=O)C12CCN(CC1CCOCC1)CC2` displayed a clearance at […] of 17 mL/min/kg. The same molecule yielded a distribution volume (Vd) at […] in [5] of 5.2 L/kg. Besides, in series [6], the half-life at […] is 3.9 h. Besides, the Kp uu at 8 h in [7] amounted to 0.77; in series [14], 0.72; in [11], 0.74; in series [15] it was 0.5. Also, in [13], the half-life at 24 h is 3.3 h. The molecule further showed a clearance at 8 h in [8] of 17 mL/min/kg. Further, the Vd at 8 h in [9] was 6.2 L/kg. The half-life at 8 h is 4.4 h in [10] and 5.1 h in series [22]. The concentration giving a half-maximal response (EC50) in series [1] came out at 8 nM. In addition, in series [3], the IC50 worked out at 8200 nM. Moreover, the results for the fraction unbound at 6 h, 5 µM in series [16], in [17] and in series [18] were 0.291, 0.3 and 0.364, respectively. Moreover, the kinetic solubility in series [19] was 64 µM (≈ 26.3 µg/mL). Besides, the values for the Kp uu at 176 h (in series [23]; in the series “in vivo [24]”) were 1.7 and 0.6, respectively. The bioavailability at 24 h in “in vivo [20]” was determined as 68%. In the series “in vivo [21]”, this molecule showed a bioavailability at 8 h of 42%. The CLhep predicted at 1 h, 1 µM in “in vitro” was less than 14 mL/min/kg. For the same molecule, the Papp A→B in the series on MDR1 is 15 ×10⁻⁶ cm/s; with BCRP, 20 ×10⁻⁶ cm/s.
